{"source": "patent US20210205272A1", "about": "“DOSING REGIMENS FOR TREATMENT OF SOLID TUMORS HAVING ONE OR MORE GENETIC ALTERATIONS IN FGFR1, FGFR2, AND/OR FGFR3” (DEBIOPHARM INTERNATIONAL, S.A., priority 2018, published 2021)", "key": {"[1]": {"test_system": "advanced solid tumors harboring FGFR 1, 2 or 3 gene alterations", "assay": "Phase I dose escalation Debio 1347-101: tumor response by RECIST 1.1", "format": "in vivo, human"}, "[2]": {"test_system": "advanced solid malignancies of any histological tumor type harboring an FGFR 1, 2 or 3 fusion", "assay": "Expansion part of Debio 1347-101 phase I study: tumor response by RECIST 1.1", "format": "in vivo, human", "details": "80 mg once daily", "procedure": "The primary objective of this expansion phase is to confirm the safety profile at the RP2D of 80 mg once daily.\nAs of January 2019, two patients achieved a BOR of PR by investigator assessment according to RECIST 1.1 criteria, one suffering from a cholangiocarcinoma harboring a FGFR2-TACC2 fusion and one suffering from a colon cancer harboring a FGFR2-RP11-89K10.1 fusion."}, "[3]": {"assay": "clinical", "details": "in vivo"}, "[4]": {"details": "10 patients with confirmed FGFR fusions, doses ≥60 mg/day"}, "[5]": {"details": "confirmed FGFR fusions, doses ≥60 mg/day"}, "[6]": {"details": "one patient, intrahepatic cholangiocarcinoma, FGFR2 deletion of exon 5"}}, "data": [{"smiles": "Cc1nc2cc(-n3ncc(C(=O)c4cc5ccccc5[nH]4)c3N)ccc2[nH]1", "note": "[Debio 1347, 5-amino-1-(2-methyl-1H-benzo[d]imidazol-5-yl)-1H-pyrazol-4-yl 1H-indol-2-yl ketone]", "values": [{"measurement": "drug-related deaths", "setting": "58 treated patients", "value": "no death was considered drug-related"}, {"measurement": "maximum tolerated dose (MTD)", "setting": "escalated up to 150 mg, ≤2 DLTs at the same dose level", "value": "not formally reached"}, {"measurement": "TEAE highest severity grade 1", "setting": "human, in vivo", "value": "4 (6.9%) patients"}, {"measurement": "TEAE highest severity grade 2", "setting": "human, in vivo", "value": "17 (29.3%) patients"}, {"measurement": "TEAE highest severity grade 3", "setting": "human, in vivo", "value": "28 (48.3%) patients"}, {"measurement": "TEAE highest severity grade 4", "setting": "human, in vivo", "value": "2 (3.4%) patients"}, {"measurement": "number of serious adverse effects (SAEs)", "setting": "human, in vivo", "value": 39, "unit": "SAEs"}, {"measurement": "patients experiencing serious adverse effects (SAEs)", "setting": "human, in vivo", "value": 20, "unit": "patients"}, {"measurement": "patients requiring a dose reduction", "setting": "human, in vivo", "value": 20, "unit": "%"}, {"measurement": "patients requiring a dose reduction after the 28-day DLT period", "setting": "human, in vivo", "value": "7 out of 9"}, {"measurement": "patients requiring dose modifications due to adverse events", "setting": "human, in vivo", "value": "30 (51.7%) patients"}, {"measurement": "SAEs deemed possibly study drug related (DLTs)", "setting": "in vivo", "value": "two"}, {"measurement": "TEAEs most often severe (grade >2)", "setting": "in vivo", "value": "hyperphosphatemia, anemia, hyponatremia, and dyspnea"}, {"measurement": "dose reduction required", "setting": "in vivo", "value": "no dose reduction was required at all"}, {"measurement": "most common TEAEs with an incidence ≥25%", "setting": "in vivo", "value": "hyperphosphatemia, diarrhea, nausea, fatigue, constipation, decreased appetite, nail changes, and dry mouth"}, {"measurement": "safety profile", "setting": "in vivo", "value": "tolerable and manageable safety profile"}, {"measurement": "TEAE highest severity grade 5", "setting": "of 58 treated patients", "value": "7 (12.1%) patients"}, {"measurement": "patients died from disease progression", "setting": "of 58 treated patients", "value": 21, "unit": "patients"}, {"measurement": "patients achieving PR", "setting": "[1]; [4]", "value": 3, "unit": "patients"}, {"measurement": "patients achieving disease stabilization", "setting": "[1]; [4]", "value": 5, "unit": "patients"}, {"measurement": "patients with progressive disease", "setting": "[1]; 57 evaluable patients", "value": 35, "unit": "patients"}, {"measurement": "patients with stable disease", "setting": "[1]; 57 evaluable patients", "value": 16, "unit": "patients"}, {"measurement": "tumor type, FGFR alteration and dose of the six PRs", "setting": "[1]; 57 evaluable patients", "value": "two had urothelial carcinoma (FGFR3 fusion—80, 150 mg), the others uterine (FGFR1 amplified—30 mg), cervical (FGFR2 amplified—80 mg), colon cancer (FGFR1 amplified—110 mg) or cholangiocarcinoma (FGFR2 mutation—110 mg)"}, {"measurement": "patients with partial response (PR), overall", "setting": "[1]; 57 patients evaluable for tumor response", "value": 6, "unit": "patients"}, {"measurement": "disease control rate (DCR) overall", "setting": "[1]; all evaluable patients", "value": 38.6, "unit": "%"}, {"measurement": "response after independent centralized radiological review", "setting": "[1]; cholangiocarcinoma, FGFR2 mutation, 110 mg", "value": "confirmed completed response (CR)"}, {"measurement": "disease control rate (DCR)", "setting": "[1]; [5]", "value": 80, "unit": "%"}, {"measurement": "median treatment duration in patients with disease control", "setting": "[1]; [5]", "value": 34, "unit": "weeks"}, {"measurement": "range of treatment duration in patients with disease control", "setting": "[1]; [5]", "value": "24-47 weeks"}, {"measurement": "antitumor activity", "setting": "[1]; mainly FGFR2 or 3 gene alterations incl. fusion/translocation, 80 mg and 110 mg daily", "value": "Encouraging antitumor activity"}, {"measurement": "stable disease patients with reduced target lesion size ≤30% at least once on-treatment", "setting": "[1]; of 16 with stable disease", "value": 10, "unit": "patients"}, {"measurement": "patients with progressive disease per clinical assessment in absence of radiographic evidence", "setting": "[1]; of 35 with progressive disease", "value": 13, "unit": "patients"}, {"measurement": "duration of partial response", "setting": "[1]; [6]", "value": "up to 48 weeks"}, {"measurement": "response upon independent radiological review", "setting": "[1]; [6]", "value": "complete response"}, {"measurement": "tumor volume reduction", "setting": "[2]; cholangiocarcinoma FGFR2-ATAD2 fusion, after 6 weeks of treatment", "value": "about 7%"}, {"measurement": "patients with BOR of PR by investigator assessment", "setting": "[2]; cholangiocarcinoma FGFR2-TACC2 fusion and colon cancer FGFR2-RP11-89K10.1 fusion, as of January 2019", "value": "two"}, {"measurement": "best response", "setting": "[2]; one patient, cholangiocarcinoma FGFR2-ATAD2 fusion", "value": "disease stabilization (SD)"}, {"measurement": "half-life", "setting": "[3]; human, po", "value": 11.5, "unit": "h"}, {"measurement": "hyperphosphatemia dose relation", "setting": "[3]", "value": "dose-dependent"}]}]}
